In US20240269139A1, “COMPOUNDS FOR TARGETED PROTEIN DEGRADATION OF KINASES” (DANA-FARBER CANCER INSTITUTE, INC., priority 2020, published 2024):
Where two headings read alike, the source gives them in different places.

Experiments:
[1] = biological target: protein kinases (human kinome) (Homo sapiens, UniProt O43683); type: cell-based; conditions: for logFC: BUB1 (O43683); for logFC BUB1 (O43683): direction down
[2] = biological target: protein kinases (human kinome) (Homo sapiens, UniProt P11802); type: cell-based; conditions: experiment wp152
[3] = biological target: protein kinases (human kinome) (Homo sapiens, UniProt P35790); type: cell-based; conditions: CHKA P35790; experiment wp152
[4] = biological target: T1, protein kinases (human kinome) (Homo sapiens, UniProt P42680); type: cell-based; conditions: TEC (P42680), experiment wp134
T1 sequence (P42680 1-631): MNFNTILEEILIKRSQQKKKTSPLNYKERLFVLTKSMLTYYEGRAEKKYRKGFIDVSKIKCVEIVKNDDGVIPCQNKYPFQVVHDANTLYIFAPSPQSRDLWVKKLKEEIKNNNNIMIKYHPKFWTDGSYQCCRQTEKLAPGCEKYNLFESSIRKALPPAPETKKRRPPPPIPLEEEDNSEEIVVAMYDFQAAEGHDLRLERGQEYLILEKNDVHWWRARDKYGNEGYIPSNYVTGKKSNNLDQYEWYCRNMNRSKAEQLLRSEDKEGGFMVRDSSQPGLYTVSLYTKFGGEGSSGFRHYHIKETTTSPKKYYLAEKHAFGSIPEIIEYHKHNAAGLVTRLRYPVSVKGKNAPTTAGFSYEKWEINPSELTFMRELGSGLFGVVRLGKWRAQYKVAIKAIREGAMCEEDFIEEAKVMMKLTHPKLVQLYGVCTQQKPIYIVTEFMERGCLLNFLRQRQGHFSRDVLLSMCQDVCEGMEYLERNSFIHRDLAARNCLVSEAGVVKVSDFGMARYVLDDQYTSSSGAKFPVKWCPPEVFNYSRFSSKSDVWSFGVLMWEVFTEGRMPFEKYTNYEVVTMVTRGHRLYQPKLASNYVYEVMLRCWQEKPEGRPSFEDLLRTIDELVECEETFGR

[5] = biological target: protein kinases (human kinome) (Homo sapiens, UniProt P51451); type: cell-based; conditions: for logFC BLK: BLK (P51451), direction down; for logFC of BLK (P51451): down
[6] = biological target: protein kinases (human kinome) (Homo sapiens, UniProt P53671); type: cell-based; conditions: experiment wp152
[7] = biological target: protein kinases (human kinome) (Homo sapiens, UniProt Q07912); type: cell-based
[8] = biological target: T2, protein kinases (human kinome) (Homo sapiens, UniProt Q8TAS1); type: cell-based; conditions: experiment wp134
T2 sequence (Q8TAS1 1-419): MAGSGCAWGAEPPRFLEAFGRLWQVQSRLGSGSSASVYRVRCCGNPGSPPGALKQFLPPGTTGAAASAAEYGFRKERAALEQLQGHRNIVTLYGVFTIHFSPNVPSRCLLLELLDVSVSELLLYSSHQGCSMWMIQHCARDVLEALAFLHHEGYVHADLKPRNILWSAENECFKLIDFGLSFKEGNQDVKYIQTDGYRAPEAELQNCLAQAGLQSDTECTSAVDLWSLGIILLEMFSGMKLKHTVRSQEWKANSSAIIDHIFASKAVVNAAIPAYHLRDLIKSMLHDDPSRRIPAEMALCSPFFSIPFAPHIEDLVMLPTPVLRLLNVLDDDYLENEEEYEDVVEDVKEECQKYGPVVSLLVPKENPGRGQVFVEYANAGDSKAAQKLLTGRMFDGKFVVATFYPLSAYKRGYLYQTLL

[9] = biological target: protein kinases (human kinome) (Homo sapiens, UniProt Q9H0K1); type: cell-based; conditions: experiment wp134
[10] = biological target: T3, protein kinases (human kinome) (Homo sapiens, UniProt Q9UEE5); type: cell-based; conditions: STK17A Q9UEE5; experiment wp134
T3 sequence (Q9UEE5 1-414): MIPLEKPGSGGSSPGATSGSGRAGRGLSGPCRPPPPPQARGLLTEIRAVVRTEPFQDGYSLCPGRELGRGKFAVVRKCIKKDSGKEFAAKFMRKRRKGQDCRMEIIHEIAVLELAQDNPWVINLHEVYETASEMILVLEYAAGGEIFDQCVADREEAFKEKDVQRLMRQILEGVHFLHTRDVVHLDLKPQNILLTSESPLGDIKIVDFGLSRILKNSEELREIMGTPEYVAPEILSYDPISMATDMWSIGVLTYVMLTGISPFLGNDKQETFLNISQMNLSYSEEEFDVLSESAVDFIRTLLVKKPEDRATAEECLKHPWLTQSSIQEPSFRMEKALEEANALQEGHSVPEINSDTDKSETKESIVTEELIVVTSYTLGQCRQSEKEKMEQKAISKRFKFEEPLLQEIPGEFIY

[11] = system: protein kinases (human kinome); type: cell-based
[12] = biological target: extended human kinome (kinase-like proteins) (Homo sapiens, UniProt Q16875); experiment: Whole cell quantitative proteomics: extended kinome hits; conditions: Accession Q16875; experiment wp134
Procedure: (§1) Whole cell multiplexed quantitative proteomics was employed to measure changes in abundance of the proteome in response to treatment with each of the kinase degrader molecules relative to DMSO (Table 1, Appendix I).
(§2) Cells were treated with DMSO (biological triplicate) or degrader at indicated dose and time and cells were harvested by centrifugation. […] Precipitated protein was resuspended in 4 M Urea, 50 mM HEPES pH 7.4, followed by dilution to 1 M urea with the addition of 200 mM EPPS, pH 8. Proteins were first digested with LysC (1:50: enzyme:protein) for 12 hours at room temperature. The LysC digestion was diluted to 0.5 M Urea with 200 mM EPPS pH 8 followed by digestion with trypsin (1:50; enzyme:protein) for 6 hours at 37° C. Tandem mass tag (TMT) reagents (Thermo Fisher Scientific) were dissolved in anhydrous acetonitrile (ACN) according to manufacturer's instructions. […] The 10, 11, or 16-plex labeling reactions were performed for 1.5 hours at room temperature and the reaction quenched by the addition of hydroxylamine to a final concentration of 0.3% for 15 minutes at room temperature. The sample channels were combined at a 1:1 ratio, desalted using C18 solid phase extraction cartridges (Waters®) and analyzed by LC-MS for channel ratio comparison. Samples were then combined using the adjusted volumes determined in the channel ratio analysis and dried down in a speed vacuum. The combined sample was then resuspended in 1% formic acid, and acidified (pH 2-3) before being subjected to desalting with C18 SPE (Sep-Pak®, Waters®). Samples were then offline fractionated into 96 fractions by high pH reverse-phase HPLC (Agilent® LC1260) through an aeris peptide xb-c18 column (Phenomenex®) with mobile phase A containing 5% acetonitrile and 10 mM NH4HCO3 in LC-MS grade H2O, and mobile phase B containing 90% acetonitrile and 10 mM NH4HCO3 in LC-MS grade H2O (both pH 8.0). The 96 resulting fractions were then pooled in a non-continuous manner into 24 fractions and desalted using C18 solid phase extraction plates (SOLA®, Thermo Fisher Scientific) followed by subsequent mass spectrometry analysis.
(§3) Data were collected using an Orbitrap Fusion™ Lumos™ mass spectrometer (Thermo Fisher Scientific, San Jose, CA, USA) coupled with a Proxeon EASY-nLC™ 1200 LC pump (Thermo Fisher Scientific) or an Orbitrap Eclipse™ Tribrid™ mass spectrometer (Thermo Fisher Scientific, San Jose, CA, USA) coupled with an UltiMate™ 3000 RSLCnano System. Peptides were separated on an EasySpray™ ES803a/ES803a.rev2 75 μm inner diameter microcapillary column (ThermoFisher Scientific).
(§4) Data dependent MS2 spectra were acquired in the ion trap with a normalized collision energy (NCE) set at 35%, AGC target set to 1.8×10^4 and a maximum injection time of 120 ms. MS3 scans were acquired in the Orbitrap with HCD collision energy set to 55%. AGC target set to 2×10^5, maximum injection time of 150 ms, resolution at 50,000 and with a maximum synchronous precursor selection (SPS) precursors set to 10.
(§5) Proteome Discoverer™ 2.1, 2.2 or 2.4 (Thermo Fisher Scientific) was used for .RAW file processing and controlling peptide and protein level false discovery rates, assembling proteins from peptides, and protein quantification from peptides.

[13] = biological target: protein kinases (human kinome) (Homo sapiens, UniProt O14874); type: cell-based; conditions: BCKDK (O14874), experiment wp137
[14] = biological target: protein kinases (human kinome) (Homo sapiens, UniProt P31749); type: cell-based; conditions: for logFC: AKT1 (P31749)
[15] = biological target: protein kinases (human kinome) (Homo sapiens, UniProt P31751); type: cell-based; conditions: AKT2 (P31751)
[16] = biological target: protein kinases (human kinome) (Homo sapiens, UniProt Q15118); type: cell-based; conditions: PDK1 Q15118; experiment wp137
[17] = biological target: protein kinases (human kinome) (Homo sapiens, UniProt Q9Y243); type: cell-based; conditions: AKT3 (Q9Y243-1)
[18] = biological target: extended human kinome (kinase-like proteins) (Homo sapiens, UniProt P27144); experiment: Whole cell quantitative proteomics: extended kinome hits; conditions: experiment wp137
Procedure: as §1, §2, §3, §4, §5

[19] = biological target: T4, extended human kinome (kinase-like proteins) (Homo sapiens, UniProt Q7L8L6); experiment: as above; conditions: Accession Q7L8L6; experiment wp137
T4 sequence (Q7L8L6 28-764): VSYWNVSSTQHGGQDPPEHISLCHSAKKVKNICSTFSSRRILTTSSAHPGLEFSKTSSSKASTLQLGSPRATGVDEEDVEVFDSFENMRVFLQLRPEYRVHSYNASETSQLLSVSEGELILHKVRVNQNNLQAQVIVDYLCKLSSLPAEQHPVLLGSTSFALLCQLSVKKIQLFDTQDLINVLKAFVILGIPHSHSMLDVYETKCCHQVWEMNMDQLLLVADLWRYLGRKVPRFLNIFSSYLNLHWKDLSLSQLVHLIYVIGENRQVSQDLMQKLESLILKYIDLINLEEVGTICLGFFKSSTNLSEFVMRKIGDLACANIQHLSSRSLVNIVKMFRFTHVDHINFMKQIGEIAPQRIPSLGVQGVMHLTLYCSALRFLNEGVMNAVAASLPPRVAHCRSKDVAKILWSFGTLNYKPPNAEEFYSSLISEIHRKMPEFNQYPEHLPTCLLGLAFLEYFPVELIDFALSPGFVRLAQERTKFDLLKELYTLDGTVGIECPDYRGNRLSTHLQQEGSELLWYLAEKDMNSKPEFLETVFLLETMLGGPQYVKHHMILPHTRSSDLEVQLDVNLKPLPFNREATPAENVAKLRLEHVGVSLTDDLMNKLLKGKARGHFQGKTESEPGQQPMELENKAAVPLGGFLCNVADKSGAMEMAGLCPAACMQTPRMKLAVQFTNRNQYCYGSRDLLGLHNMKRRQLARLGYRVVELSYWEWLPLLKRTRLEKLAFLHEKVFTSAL
Procedure: as §1, §2, §3, §4, §5

[20] = biological target: T5, extended human kinome (kinase-like proteins) (Homo sapiens, UniProt Q9UHH9); experiment: as above; conditions: Accession Q9UHH9; experiment wp137
T5 sequence (Q9UHH9 1-426): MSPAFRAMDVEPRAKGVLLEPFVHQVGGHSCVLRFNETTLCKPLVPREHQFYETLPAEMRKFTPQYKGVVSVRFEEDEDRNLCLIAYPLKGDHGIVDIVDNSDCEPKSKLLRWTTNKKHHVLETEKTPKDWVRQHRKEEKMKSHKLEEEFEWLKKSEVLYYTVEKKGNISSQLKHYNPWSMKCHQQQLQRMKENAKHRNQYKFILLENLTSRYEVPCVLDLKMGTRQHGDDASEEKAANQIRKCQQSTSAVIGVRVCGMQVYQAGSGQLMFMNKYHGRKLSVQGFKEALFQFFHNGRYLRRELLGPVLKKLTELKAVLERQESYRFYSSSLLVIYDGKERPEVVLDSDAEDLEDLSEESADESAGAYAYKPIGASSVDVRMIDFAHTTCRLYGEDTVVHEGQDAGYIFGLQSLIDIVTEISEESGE
Procedure: as §1, §2, §3, §4, §5

[21] = experiment wp104, direction down
[22] = experiment wp137, direction down

Sequence of protein kinases (human kinome) (Homo sapiens, UniProt P31749) (P31749 whole entry): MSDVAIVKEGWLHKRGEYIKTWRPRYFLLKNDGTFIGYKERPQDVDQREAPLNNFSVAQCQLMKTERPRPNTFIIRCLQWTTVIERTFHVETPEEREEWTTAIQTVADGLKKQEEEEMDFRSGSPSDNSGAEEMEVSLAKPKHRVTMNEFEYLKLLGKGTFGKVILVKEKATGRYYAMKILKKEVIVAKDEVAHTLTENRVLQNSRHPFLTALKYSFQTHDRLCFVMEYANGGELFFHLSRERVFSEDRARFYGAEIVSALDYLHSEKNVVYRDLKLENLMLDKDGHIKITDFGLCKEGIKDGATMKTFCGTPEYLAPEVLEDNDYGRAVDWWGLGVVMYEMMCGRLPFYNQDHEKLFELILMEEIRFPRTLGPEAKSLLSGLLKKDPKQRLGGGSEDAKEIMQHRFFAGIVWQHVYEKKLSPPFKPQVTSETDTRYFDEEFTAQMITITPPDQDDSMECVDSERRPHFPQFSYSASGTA
Sequence of protein kinases (human kinome) (Homo sapiens, UniProt P51451) (P51451 whole entry): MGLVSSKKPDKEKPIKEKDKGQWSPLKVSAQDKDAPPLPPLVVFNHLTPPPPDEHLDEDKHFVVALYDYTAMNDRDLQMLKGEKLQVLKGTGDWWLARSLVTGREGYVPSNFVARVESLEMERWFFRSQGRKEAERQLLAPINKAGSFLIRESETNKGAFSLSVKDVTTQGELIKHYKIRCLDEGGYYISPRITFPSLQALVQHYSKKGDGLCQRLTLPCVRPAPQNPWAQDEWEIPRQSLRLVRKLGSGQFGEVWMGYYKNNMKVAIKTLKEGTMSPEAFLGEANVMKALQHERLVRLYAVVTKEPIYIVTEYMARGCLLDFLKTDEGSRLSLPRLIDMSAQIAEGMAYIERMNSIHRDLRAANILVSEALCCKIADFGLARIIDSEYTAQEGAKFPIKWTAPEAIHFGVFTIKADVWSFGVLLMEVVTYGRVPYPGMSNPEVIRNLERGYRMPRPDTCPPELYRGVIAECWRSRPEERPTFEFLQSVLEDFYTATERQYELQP
Sequence of protein kinases (human kinome) (Homo sapiens, UniProt O43683) (O43683 whole entry): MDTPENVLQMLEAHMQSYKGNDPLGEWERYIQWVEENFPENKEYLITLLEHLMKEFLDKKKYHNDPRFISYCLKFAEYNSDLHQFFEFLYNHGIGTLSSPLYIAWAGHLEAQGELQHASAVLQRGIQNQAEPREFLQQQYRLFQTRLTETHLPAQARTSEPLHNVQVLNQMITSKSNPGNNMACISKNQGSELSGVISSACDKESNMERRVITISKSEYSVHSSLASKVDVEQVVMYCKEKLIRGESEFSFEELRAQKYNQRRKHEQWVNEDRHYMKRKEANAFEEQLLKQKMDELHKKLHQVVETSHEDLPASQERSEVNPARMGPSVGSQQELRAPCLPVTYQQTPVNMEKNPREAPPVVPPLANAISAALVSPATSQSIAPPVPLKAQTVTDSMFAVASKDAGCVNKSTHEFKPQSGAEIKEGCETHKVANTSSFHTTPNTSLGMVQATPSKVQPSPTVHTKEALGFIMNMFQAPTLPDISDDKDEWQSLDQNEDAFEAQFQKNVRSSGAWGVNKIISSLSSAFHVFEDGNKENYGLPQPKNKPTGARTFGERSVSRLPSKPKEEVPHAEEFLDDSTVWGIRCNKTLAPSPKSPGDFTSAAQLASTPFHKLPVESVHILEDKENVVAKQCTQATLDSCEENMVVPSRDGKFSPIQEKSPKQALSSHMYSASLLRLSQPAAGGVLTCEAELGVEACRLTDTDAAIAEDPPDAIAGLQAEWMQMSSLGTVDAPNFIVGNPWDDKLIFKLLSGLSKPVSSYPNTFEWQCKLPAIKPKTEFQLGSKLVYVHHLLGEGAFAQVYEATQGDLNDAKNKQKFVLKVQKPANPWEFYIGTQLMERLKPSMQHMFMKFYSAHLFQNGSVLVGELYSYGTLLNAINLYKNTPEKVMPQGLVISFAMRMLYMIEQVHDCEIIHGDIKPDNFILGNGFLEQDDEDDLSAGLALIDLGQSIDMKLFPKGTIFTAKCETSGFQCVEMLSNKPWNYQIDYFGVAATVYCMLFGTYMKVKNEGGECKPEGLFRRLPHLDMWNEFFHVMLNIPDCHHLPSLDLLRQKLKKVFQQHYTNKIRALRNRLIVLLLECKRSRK
Sequence of protein kinases (human kinome) (Homo sapiens, UniProt Q9Y243) (Q9Y243 whole entry): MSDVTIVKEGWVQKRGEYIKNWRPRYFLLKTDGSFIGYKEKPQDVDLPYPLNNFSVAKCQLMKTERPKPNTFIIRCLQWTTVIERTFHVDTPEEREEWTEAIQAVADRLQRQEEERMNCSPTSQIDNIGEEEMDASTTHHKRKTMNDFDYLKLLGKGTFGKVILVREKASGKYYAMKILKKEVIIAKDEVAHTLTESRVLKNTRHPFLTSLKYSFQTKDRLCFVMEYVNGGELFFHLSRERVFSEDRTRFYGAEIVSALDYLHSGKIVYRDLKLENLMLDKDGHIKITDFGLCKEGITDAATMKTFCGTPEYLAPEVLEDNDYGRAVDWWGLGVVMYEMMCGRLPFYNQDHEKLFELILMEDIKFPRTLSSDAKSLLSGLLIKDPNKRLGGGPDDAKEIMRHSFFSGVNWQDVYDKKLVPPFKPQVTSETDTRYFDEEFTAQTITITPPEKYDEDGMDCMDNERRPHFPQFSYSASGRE
Sequence of protein kinases (human kinome) (Homo sapiens, UniProt P31751) (P31751 whole entry): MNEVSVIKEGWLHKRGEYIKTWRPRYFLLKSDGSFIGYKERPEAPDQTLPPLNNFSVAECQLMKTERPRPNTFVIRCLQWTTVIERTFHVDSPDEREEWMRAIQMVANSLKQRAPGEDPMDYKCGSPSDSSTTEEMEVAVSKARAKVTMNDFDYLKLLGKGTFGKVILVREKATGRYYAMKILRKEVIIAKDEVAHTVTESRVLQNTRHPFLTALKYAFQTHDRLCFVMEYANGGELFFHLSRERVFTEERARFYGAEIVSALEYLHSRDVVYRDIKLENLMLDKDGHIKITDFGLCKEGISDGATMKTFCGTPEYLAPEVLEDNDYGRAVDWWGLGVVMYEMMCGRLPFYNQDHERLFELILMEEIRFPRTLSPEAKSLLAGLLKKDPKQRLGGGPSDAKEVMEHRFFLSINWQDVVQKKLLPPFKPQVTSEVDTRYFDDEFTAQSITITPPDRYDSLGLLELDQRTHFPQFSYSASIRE
Sequence of protein kinases (human kinome) (Homo sapiens, UniProt Q9H0K1) (Q9H0K1 whole entry): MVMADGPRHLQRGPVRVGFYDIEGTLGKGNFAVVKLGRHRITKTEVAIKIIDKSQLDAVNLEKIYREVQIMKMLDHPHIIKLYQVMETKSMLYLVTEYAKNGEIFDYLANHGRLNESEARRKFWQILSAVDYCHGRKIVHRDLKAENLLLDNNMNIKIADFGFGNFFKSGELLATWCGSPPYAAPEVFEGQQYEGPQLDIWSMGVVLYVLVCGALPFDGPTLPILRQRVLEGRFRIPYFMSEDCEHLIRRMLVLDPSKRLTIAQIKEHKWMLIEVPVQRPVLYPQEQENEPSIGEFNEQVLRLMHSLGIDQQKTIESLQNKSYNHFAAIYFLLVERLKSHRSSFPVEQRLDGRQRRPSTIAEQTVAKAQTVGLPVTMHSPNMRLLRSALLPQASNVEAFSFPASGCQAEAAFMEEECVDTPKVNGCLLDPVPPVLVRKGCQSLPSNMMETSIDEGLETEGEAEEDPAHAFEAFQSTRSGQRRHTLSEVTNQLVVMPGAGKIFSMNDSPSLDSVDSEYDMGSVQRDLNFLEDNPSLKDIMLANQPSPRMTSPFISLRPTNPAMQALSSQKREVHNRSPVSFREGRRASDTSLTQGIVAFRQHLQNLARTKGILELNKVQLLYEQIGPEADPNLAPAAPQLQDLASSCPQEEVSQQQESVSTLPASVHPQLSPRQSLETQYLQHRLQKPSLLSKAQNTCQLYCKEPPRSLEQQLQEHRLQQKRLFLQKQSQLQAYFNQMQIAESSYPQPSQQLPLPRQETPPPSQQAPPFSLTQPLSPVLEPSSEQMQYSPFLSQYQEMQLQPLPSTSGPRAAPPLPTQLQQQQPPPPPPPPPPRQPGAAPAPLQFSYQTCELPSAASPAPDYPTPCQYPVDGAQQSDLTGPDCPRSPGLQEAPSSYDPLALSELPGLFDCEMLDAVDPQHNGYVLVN
Sequence of protein kinases (human kinome) (Homo sapiens, UniProt Q07912) (Q07912 whole entry): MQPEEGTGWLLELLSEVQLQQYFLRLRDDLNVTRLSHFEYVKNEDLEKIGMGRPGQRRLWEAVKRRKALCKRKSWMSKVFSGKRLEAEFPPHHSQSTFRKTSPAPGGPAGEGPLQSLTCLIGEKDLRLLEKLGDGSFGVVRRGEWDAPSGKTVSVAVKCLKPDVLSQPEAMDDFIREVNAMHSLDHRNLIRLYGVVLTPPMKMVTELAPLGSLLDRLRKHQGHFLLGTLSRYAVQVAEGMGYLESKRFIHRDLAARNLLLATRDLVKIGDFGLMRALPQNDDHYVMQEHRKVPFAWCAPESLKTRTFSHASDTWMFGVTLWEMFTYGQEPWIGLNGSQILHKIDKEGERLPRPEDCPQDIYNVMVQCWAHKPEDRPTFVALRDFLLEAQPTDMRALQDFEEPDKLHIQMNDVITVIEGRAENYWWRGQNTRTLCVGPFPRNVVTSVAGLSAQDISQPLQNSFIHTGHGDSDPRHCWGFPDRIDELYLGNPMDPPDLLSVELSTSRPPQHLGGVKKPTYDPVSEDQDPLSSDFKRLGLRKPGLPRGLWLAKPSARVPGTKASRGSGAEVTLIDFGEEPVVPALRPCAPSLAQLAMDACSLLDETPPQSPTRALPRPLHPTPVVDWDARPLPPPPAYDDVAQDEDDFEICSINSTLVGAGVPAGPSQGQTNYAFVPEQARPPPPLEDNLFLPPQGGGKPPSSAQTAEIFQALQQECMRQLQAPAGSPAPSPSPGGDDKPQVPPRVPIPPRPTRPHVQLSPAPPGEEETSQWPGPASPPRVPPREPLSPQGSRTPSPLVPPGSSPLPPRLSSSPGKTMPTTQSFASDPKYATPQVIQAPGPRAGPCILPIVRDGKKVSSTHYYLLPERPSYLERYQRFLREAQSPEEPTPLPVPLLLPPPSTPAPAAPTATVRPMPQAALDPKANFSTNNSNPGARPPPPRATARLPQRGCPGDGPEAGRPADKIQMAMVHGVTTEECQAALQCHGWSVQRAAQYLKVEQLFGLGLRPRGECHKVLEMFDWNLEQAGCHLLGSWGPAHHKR

CN[C@@H](C)C(=O)N[C@H](C(=O)N1CCC[C@H]1c1nc(C(=O)c2cccc(OCCCCCn3cc(CN4CCN(c5ccc(Nc6ncc7c(n6)N(C)C(=O)N(c6cc(NC(=O)c8cccc(C(F)(F)F)c8)ccc6C)C7)cn5)CC4)nn3)c2)cs1)C1CCCCC1 [DB118430]
logFC ([1]; experiment wp134): −0.3866
logFC ([1]; experiment wp152): −0.3814
logFC BUB1 (O43683) ([1]; Experiment wp134): −0.3866
logFC BUB1 (O43683) ([1]; Experiment wp152): −0.3814
logFC CDK4 (P11802) [2]: −0.3644
logFC [3]: −0.3601
logFC [4]: −0.5666
logFC ([4]; direction down): −0.5666
logFC BLK ([5]; experiment wp134): −0.5826
logFC BLK ([5]; experiment wp152): −0.9023
logFC of BLK (P51451) ([5]; Experiment wp134): −0.5826
logFC of BLK (P51451) ([5]; Experiment wp152): −0.9023
logFC LIMK2 ([6]; LIMK2 (P53671), down): −0.4571
logFC of LIMK2 ([6]; LIMK2 P53671): −0.4571
logFC TNK2 (Q07912-1) ([7]; Experiment wp134, direction down): −0.575
logFC TNK2 ([7]; TNK2 (Q07912-1), experiment wp134): −0.575
logFC UHMK1 ([8]; Accession Q8TAS1, direction down): −0.4944
logFC UHMK1 ([8]; UHMK1 (Q8TAS1)): −0.4944
logFC of SIK2 ([9]; Accession Q9H0K1): −0.3803
logFC SIK2 (Q9H0K1) ([9]; direction of change down): −0.3803
logFC [10]: −0.3497
logFC STK17A [10]: −0.3497
kinases the bifunctional compound degrades ([11]; as stated for the structure in the embodiments): BLK, BUB1, CDK4, LIMK2, SIK2, STK17A, TEC, TNK2, and UHMK1
Kinase hits ([11]; kinases significantly downregulated vs DMSO (fold change cutoff −1.25, P-value<0.01), ≤8 h, 0.1-5 μM degrader, 7 cell lines): BLK, BUB1, CDK4, LIMK2, SIK2, STK17A, TEC, TNK2, UHMK1
Total no. kinase hits ([11]; number of degraded kinases per library compound): 9
logFC PFKFB3 [12]: −0.4616

C[C@@H]1C[C@@H](O)c2ncnc(N3CCN(C(=O)[C@H](CNCCCCCCCCNC(=O)COc4cccc5c4C(=O)N(C4CCC(=O)NC4=O)C5=O)c4ccc(Cl)cc4)CC3)c21 (stereo partly drawn) [INY.02.164]
logFC [13]: −0.36
logFC ([13]; direction down): −0.36
logFC ([14]; experiment wp104): −0.7926
logFC ([14]; experiment wp137): −3.206
logFC of AKT1 (P31749) ([14]; Experiment wp104): −0.7926
logFC of AKT1 (P31749) ([14]; experiment wp137): −3.206
logFC ([15]; experiment wp104): −1.078
logFC [15, 21]: −1.078
logFC ([15]; experiment wp137): −3.156
logFC [15, 22]: −3.156
logFC [16]: −0.4419
logFC PDK1 [16]: −0.4419
logFC ([17]; experiment wp104): −1.478
logFC [17, 21]: −1.478
logFC ([17]; experiment wp137): −3.147
logFC [17, 22]: −3.147
logFC AK4 (P27144) [18]: −0.5601
logFC FASTKD5 [19]: −0.3422
logFC IP6K2 [20]: −0.5449
